Assay results published in patent US11447465B2, “Pharmaceutical compounds for treatment of medical disorders” (Achillion Pharmaceuticals, Inc., priority 2017, dated 2022).

molecular target: Human Factor D (Homo sapiens (Human), UniProt P00746); assay: Human Factor D Assay; assay type: biochemical; settings: Table 5; Human Factor D 80 nM, substrate Z-L-Lys-SBzl; read-out: IC50 (Stars)
Procedure: Human Factor D (purified from human serum, Complement Technology, Inc.) at 80 nM final concentration is incubated with test compound at various concentrations for 5 min at room temperature in 50 mM Tris, 1M NaCl, pH 7.5. A synthetic substrate Z-L-Lys-SBzl and DTNB (Ellman's reagent) are added to final concentrations of 100 μM each. Absorbance at 405 nm (A405) is recorded at 30 second intervals for 30 min using a microplate spectrophotometer. IC50 values are calculated by nonlinear regression of Complement Factor D reaction rates as a function of test compound concentration.

Chain of Human Factor D (P00746 26-253): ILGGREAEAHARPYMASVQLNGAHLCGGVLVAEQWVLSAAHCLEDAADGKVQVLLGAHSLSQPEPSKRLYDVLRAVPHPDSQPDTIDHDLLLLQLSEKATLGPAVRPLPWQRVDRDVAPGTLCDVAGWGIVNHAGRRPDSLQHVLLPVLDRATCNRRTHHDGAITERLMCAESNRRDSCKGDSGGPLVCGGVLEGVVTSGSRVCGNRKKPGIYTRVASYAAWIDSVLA

Row | Compound | IC50 [nM]
1 | CC(=O)c1cc(C(=O)NCc2cscn2)n(CC(=O)N2C[C@H](F)C[C@H]2C(=O)Nc2cccc(Br)n2)n1 [Compound T-24, 3-acetyl-1-(2-((2S,4R)-2-((6-bromopyridin-2-yl)carbamoyl)-4-fluoropyrrolidin-1-yl)-2-oxoethyl)-N-(thiazol-4-ylmethyl)-1H-pyrazole-5-carboxamide] | < 1000
2 | COC(=O)c1cc(C(C)=O)cn1CC(=O)N1C[C@H](F)C[C@H]1C(=O)Nc1cccc(Br)n1 [Compound T-16, methyl 4-acetyl-1-(2-((2S,4R)-2-((6-bromopyridin-2-yl)carbamoyl)-4-fluoropyrrolidin-1-yl)-2-oxoethyl)-1H-pyrrole-2-carboxylate] | 1000 to 10000
3 | CC(=O)c1nn(CC(=O)N2[C@H](C(=O)Nc3nc(Br)ccc3C)C[C@@]3(CN4CC5(CCCC5)C4)C[C@@H]23)c2c(C)cccc12 [Compound T-42, (1R,3S,5R)-5-(2-azaspiro[3,4]octan-2-ylmethyl)-2-(2-(3-acetyl-7-methyl-1H-indazol-1-yl)acetyl)-N-(6-bromo-3-methylpyridin-2-yl)-2-azabicyclo[3.1.0]hexane-3-carboxamide] | < 1000
4 | CC(=O)c1nn(CC(=O)N2C[C@H](F)C[C@H]2C(=O)Nc2cccc(Br)n2)c2cc(/S(C)=N/C(=O)C(F)(F)F)ccc12 (stereo partly drawn) [Compound T-4, (2S,4R)-1-(2-(3-acetyl-6-((E)-S-methyl-N-(2,2,2-trifluoroacetyl)sulfinimidoyl)-1H-indazol-1-yl)acetyl)-N-(6-bromopyridin-2-yl)-4-fluoropyrrolidine-2-carboxamide] | < 1000
5 | CC(=O)c1cc(C(=O)N2CCC(F)(F)C2)n(CC(=O)N2C[C@H](F)C[C@H]2C(=O)Nc2cccc(Br)n2)c1 [Compound T-18, (2S,4R)-1-(2-(4-acetyl-2-(3,3-difluoropyrrolidine-1-carbonyl)-1H-pyrrol-1-yl)acetyl)-N-(6-bromopyridin-2-yl)-4-fluoropyrrolidine-2-carboxamide] | > 10000
6 | CC(=O)c1nn(CC(=O)N2[C@H](C(=O)Nc3nc(Br)ccc3C)C[C@@]3(C)C[C@@H]23)c2cc(S(C)(=N)=O)ccc12 (stereo partly drawn) [Compound T-33, (1R,3S,5R)-2-(2-(3-acetyl-6-(S-methylsulfonimidoyl)-1H-indazol-1-yl)acetyl)-N-(6-bromo-3-methylpyridin-2-yl)-5-methyl-2-azabicyclo[3.1.0]hexane-3-carboxamide] | < 1000
7 | CC(=O)c1nn(CC(=O)N2C[C@H](F)C[C@H]2C(=O)Nc2cccc(Br)n2)c2cc(S(C)(=N)=O)ccc12 (stereo partly drawn) [Compound T-5, (2S,4R)-1-(2-(3-acetyl-6-(S-methylsulfonimidoyl)-1H-indazol-1-yl)acetyl)-N-(6-bromopyridin-2-yl)-4-fluoropyrrolidine-2-carboxamide] | < 1000
8 | CC(=O)c1nn(CC(=O)N2[C@H](C(=O)Nc3nc(Br)ccc3C)C[C@@]3(C)C[C@@H]23)c2ccc(OC(=O)NC3CC3)cc12 [Compound T-32, 3-acetyl-1-(2-((1R,3S,5R)-3-((6-bromo-3-methylpyridin-2-yl)carbamoyl)-5-methyl-2-azabicyclo[3.1.0]hexan-2-yl)-2-oxoethyl)-1H-indazol-5-yl cyclopropylcarbamate] | < 1000
9 | CC(=O)c1cn(CC(=O)N2C[C@H](F)C[C@H]2C(=O)Nc2cccc(Br)n2)c(C)n1 [Compound T-20, (2S,4R)-1-(2-(4-acetyl-2-methyl-1H-imidazol-1-yl)acetyl)-N-(6-bromopyridin-2-yl)-4-fluoropyrrolidine-2-carboxamide] | > 10000
10 | CC(=O)c1cn(CC(=O)N2[C@H]3C[C@@]3(CN3CCN(C)CC3)C[C@H]2C(=O)NCc2cccc(Cl)c2F)c2cc(P(=O)(O)O)ccc12 [Compound T-45, (3-acetyl-1-(2-((1S,3S,5S)-3-((3-chloro-2-fluorobenzyl)carbamoyl)-5-((4-methylpiperazin-1-yl)methyl)-2-azabicyclo[3.1.0]hexan-2-yl)-2-oxoethyl)-1H-indol-6-yl)phosphonic acid] | 1000 to 10000

same assay, conditions: Table 6; Human Factor D 80 nM, substrate Z-L-Lys-SBzl; read-out: IC5 (Stars)

Row | Compound | IC50 [nM]
11 | CC(=O)O[C@@H]1CO[C@H]2[C@@H]1OC[C@H]2Oc1ccc2c(c1)c(C(C)=O)nn2CC(=O)N1C[C@H](F)C[C@H]1C(=O)Nc1nc(Br)ccc1C [Compound T-53, (3R,3aR,6R,6aR)-6-((3-acetyl-1-(2-((2S,4R)-2-((6-bromo-3-methylpyridin-2-yl)carbamoyl)-4-fluoropyrrolidin-1-yl)-2-oxoethyl)-1H-indazol-5-yl)oxy)hexahydrofuro[3,2-b]furan-3-yl acetate] | < 1000
12 | CC(=O)c1nn(CC(=O)N2C[C@H](F)C[C@H]2C(=O)Nc2nc(Br)ccc2C)c2ccc(O[C@@H]3CO[C@H]4[C@@H]3OC[C@H]4OC(=O)[C@@H](N)C(C)C)cc12 [Compound T-58, (3R,3aR,6R,6aR)-6-((3-acetyl-1-(2-((2S,4R)-2-((6-bromo-3-methylpyridin-2-yl)carbamoyl)-4-fluoropyrrolidin-1-yl)-2-oxoethyl)-lH-indazol-5-yl)oxy)hexahydrofuro[3,2-b]furan-3-yl L-valinate] | < 1000
13 | CC(=O)c1nn(CC(=O)N2C[C@H](F)C[C@H]2C(=O)Nc2nc(Br)ccc2C)c2ccc(OCCS(=O)(=O)CC3(C)COC3)cc12 [Compound T-55, (2S,4R)-1-(2-(3-acetyl-5-(2-(((3-methyloxetan-3-yl)methyl)sulfonyl)ethoxy)-1H-indazol-1-yl)acetyl)-N-(6-bromo-3-methylpyridin-2-yl)-4-fluoro-pyrrolidine-2-carboxamide] | < 1000

same assay, conditions: Table 7; read-out: IC5 (Stars)

Row | Compound | IC50 [nM]
14 | Cc1ccc(Br)nc1NC(=O)[C@@H]1C[C@@]2(CNC(=O)COCCOCCNC(=O)COCCOCCNC(=O)CC[C@H](NC(=O)CCCCCCCCCCCCCCCCC(=O)O)C(=O)O)C[C@H]2N1C(=O)Cn1nc(C(N)=O)c2cc(C#Cc3ncc(F)cn3)ccc21 [Compound T-177, (S)-1-((1R,3S,5R)-3-((6-bromo-3-methylpyridin-2-yl)carbamoyl)-2-(2-(3-carbamoyl-5-((5-fluoropyrimidin-2-yl)ethynyl)-1H-indazol-1-yl)acetyl)-2-azabicyclo[3.1.0]hexan-5-yl)-24-carboxy-3,12,21,26-tetraoxo-5,8,14,17-tetraoxa-2,11,20,25-tetraazatritetracontan-43-oic acid] | < 1000
15 | COc1cc(CC(=O)N2[C@H](C(=O)Nc3nc(Br)ccc3C)C[C@@]3(C)C[C@@H]23)cc(-c2cnc(OC)nc2)c1 [Compound T-153, (1R,3S,5R)-N-(6-bromo-3-methylpyridin-2-yl)-2-(2-(3-methoxy-5-(2-methoxypyrimidin-5-yl)phenyl)acetyl)-5-methyl-2-azabicyclo[3.1.0]hexane-3-carboxamide] | 1000 to 10000
16 | CC(=O)c1nn(CC(=O)N2[C@H](C(=O)Nc3nc(Br)ccc3C)C[C@@]3(C)C[C@@H]23)c2cc(OCP(=O)(O)O)ccc12 [Compound T-132, (((3-acetyl-1-(2-((1R,3S,5R)-3-((6-bromo-3-methylpyridin-2-yl)carbamoyl)-5-methyl-2-azabicyclo[3.1.0]hexan-2-yl)-2-oxoethyl)-1H-indazol-6-yl)oxy)methyl)phosphonic acid] | < 1000
17 | Cc1ccc(Br)nc1NC(=O)[C@@H]1C[C@@]2(C)C[C@H]2N1C(=O)Cn1nc(N2CCC2=O)c2ccncc21 [Compound T-87, (1R,3S,5R)-N-(6-bromo-3-methylpyridin-2-yl)-5-methyl-2-(2-(3-(2-oxoazetidin-1-yl)-1H-pyrazolo[3,4-c]pyridin-1-yl)acetyl)-2-azabicyclo[3.1.0]hexane-3-carboxamide] | < 1000
18 | COc1ncc(-c2cc(CC(=O)N3C[C@H](F)C[C@H]3C(=O)Nc3cccc(Br)n3)cc(-c3cnc(OC)nc3)c2)cn1 [Compound T-108, (2S,4R)-1-(2-(3,5-bis(2-methoxypyrimidin-5-yl)phenyl)acetyl)-N-(6-bromopyridin-2-yl)-4-fluoropyrrolidine-2-carboxamide] | > 10000
19 | CC(=O)c1nn(CC(=O)N2[C@H](C(=O)NCc3cccc(Cl)c3F)C[C@@]3(CNC(=O)COCCOCCNC(=O)COCCOCCNC(=O)CC[C@H](NC(=O)CCCCCCCCCCCCCCCCC(=O)O)C(=O)O)C[C@@H]23)c2c(C)cc(NC(=O)N3CCCC(F)(F)C3)cc12 [Compound T-68, (S)-1-((1R,3S,5R)-2-(2-(3-acetyl-5-(3,3-difluoropiperidine-1-carboxamido)-7-methyl-1H-indazol-1-yl)acetyl)-3-((3-chloro-2-fluorobenzyl)carbamoyl)-2-azabicyclo[3.1.0]hexan-5-yl)-24-carboxy-3,12,21,26-tetraoxo-5,8,14,17-tetraoxa-2,11,20,25-tetraazatritetracontan-43-oic acid] | < 1000
20 | COc1ncc(-c2cccc(CC(=O)N3[C@H](C(=O)Nc4nc(Br)ccc4C)C[C@@]4(C)C[C@@H]34)c2)cn1 [Compound T-95, (1R,3S,5R)-N-(6-bromo-3-methylpyridin-2-yl)-2-(2-(3-(2-methoxypyrimidin-5-yl)phenyl)acetyl)-5-methyl-2-azabicyclo[3.1.0]hexane-3-carboxamide] | > 10000
21 | CCOP(=O)(COc1ccc2c(C(C)=O)nn(CC(=O)N3C[C@H](F)C[C@H]3C(=O)Nc3nc(Br)ccc3C)c2c1)OCC [Compound T-78, diethyl (((3-acetyl-1-(2-((2S,4R)-2-((6-bromo-3-methylpyridin-2-yl)carbamoyl)-4-fluoropyrrolidin-1-yl)-2-oxoethyl)-1H-indazol-6-yl)oxy)methyl)phosphonate] | < 1000
22 | CC(=O)c1nn(CC(=O)N2[C@H](C(=O)Nc3nc(Br)ccc3C)C[C@@]3(C)C[C@@H]23)c2cc3nc(C)sc3cc12 [Compound T-103, (1R,3S,5R)-2-(2-(3-acetyl-6-methyl-1H-thiazolo[5,4-f]indazol-1-yl)acetyl)-N-(6-bromo-3-methylpyridin-2-yl)-5-methyl-2-azabicyclo[3.1.0]hexane-3-carboxamide] | < 1000
